Molecules are shown by their SMILES.

The target in the first test is T1, USP25 (USP25-His6, Boston Biochem E-546) (Homo sapiens, UniProt Q9UHP3).
T1 construct: His6 (C); purchased Boston Biochem E-546
T1 sequence (Q9UHP3 1-1055): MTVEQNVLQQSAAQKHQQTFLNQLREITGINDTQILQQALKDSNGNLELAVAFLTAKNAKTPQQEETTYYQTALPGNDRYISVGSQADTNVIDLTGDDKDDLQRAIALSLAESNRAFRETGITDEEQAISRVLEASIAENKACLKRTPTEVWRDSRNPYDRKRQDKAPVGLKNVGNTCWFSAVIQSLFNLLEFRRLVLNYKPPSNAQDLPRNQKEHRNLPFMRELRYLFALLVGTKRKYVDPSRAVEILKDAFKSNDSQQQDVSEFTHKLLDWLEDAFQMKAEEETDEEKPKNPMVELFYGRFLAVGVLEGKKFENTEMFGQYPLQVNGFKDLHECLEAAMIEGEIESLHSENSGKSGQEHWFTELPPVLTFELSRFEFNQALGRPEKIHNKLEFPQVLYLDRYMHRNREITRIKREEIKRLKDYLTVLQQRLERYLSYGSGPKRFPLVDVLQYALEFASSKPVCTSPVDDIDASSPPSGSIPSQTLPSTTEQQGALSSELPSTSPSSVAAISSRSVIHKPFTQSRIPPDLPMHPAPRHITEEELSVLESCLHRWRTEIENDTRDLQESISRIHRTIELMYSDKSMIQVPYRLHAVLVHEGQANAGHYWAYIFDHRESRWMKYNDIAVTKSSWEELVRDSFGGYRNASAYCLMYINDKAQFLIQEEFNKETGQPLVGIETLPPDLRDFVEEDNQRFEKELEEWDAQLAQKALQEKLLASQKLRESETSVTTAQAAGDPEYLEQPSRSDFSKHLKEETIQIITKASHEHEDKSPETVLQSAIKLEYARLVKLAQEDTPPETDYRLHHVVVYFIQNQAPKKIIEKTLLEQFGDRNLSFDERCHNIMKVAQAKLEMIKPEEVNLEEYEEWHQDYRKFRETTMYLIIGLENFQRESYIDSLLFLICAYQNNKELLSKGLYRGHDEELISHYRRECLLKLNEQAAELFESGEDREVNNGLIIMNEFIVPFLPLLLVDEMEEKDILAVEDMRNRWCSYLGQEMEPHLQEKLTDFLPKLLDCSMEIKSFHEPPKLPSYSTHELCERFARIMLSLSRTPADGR
Kind of test: Ubiquitin-Rhodamine 110 Assay for USP25 Activity, Example A-3. The test is classed as biochemical. The following applies: Ubiquitin-Rhodamine 110 assay, Example A-3; IC50 ranges; read-out: USP25 A-3 IC50. In a few lines: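 USP25-His6 ([…] final as stated) preincubated 30 min with compound (10-point, 25 μM to 1.3 nM), then Ub-Rh110 at 25 nM (<<Km) added in pH 8.0 Tris buffer with BME, BGG and Triton X-100. Reaction stopped after 45 min at room temperature with 10 mM citric acid; fluorescence read at 485/535 nm.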
For `N#Cc1c(N2CC3CCC(C2)N3)cc(F)c2c1OC[C@H](NC(=O)c1cnc3c(c1)[C@@H]1CC1CN3)C2` (stereo partly drawn) [Example 228, (6aS,7aR)-N-[(3R)-8-cyano-7-(3,8-diazabicyclo[3.2.1]octan-3-yl}-5-fluoro-3,4-dihydro-2H-1-benzopyran-3-yl]-5H,6H,6aH,7H,7aH-cyclopropa[c]1,8-naphthyridine-2-carboxamide], the IC50 lay in the range of 0.2 to 2 µM.

Staying with this test, now noted: Ubiquitin-Rhodamine 110 assay, Example A-3; read-out: USP25 A-3 IC50 range.
Take `[2H]C1([2H])c2c(F)cc(N3CCNCC3)cc2OC[C@@H]1NC(=O)c1sc2nc(C)ccc2c1N` (single isomer, unassigned) [Example 33-1]: the IC50 is 0.2 to 2 µM. On the same count and under the same terms, in the case of `[2H]C1([2H])c2c(F)cc(N3CCNCC3)cc2OC[C@H]1NC(=O)c1sc2nc(C)ccc2c1N` (single isomer, unassigned) [Example 33-2] it was > 2 µM. The same measure, in the same setting: the figure for `CCn1ccc2cc(C(=O)N[C@H]3CCc4nc(N5C[C@@H](COC)[C@@H](N)C5)ccc4C3)cnc21` (single isomer, unassigned) [Example 400] is > 2 µM; for `CCn1ccc2cc(C(=O)N[C@H]3CCc4nc(N5C[C@H](COC)[C@H](N)C5)ccc4C3)cnc21` (single isomer, unassigned) [Example 401] it is > 2 µM; for `Cc1ccc2c(N)c(C(=O)N[C@H]3COc4cc(N5C[C@H](CF)[C@H](N)C5)ccc4C3)sc2n1` (single isomer, unassigned) [Example 424] it is 0.2 to 2 µM. The same measure, in the same setting: in the case of `Cc1ccc2c(N)c(C(=O)N[C@H]3COc4cc(N5C[C@H](N)[C@@]6(CCOC6)C5)ccc4C3)sc2n1` (single isomer, unassigned) [Example 439] it was 0.2 to 2 µM; in that of `Cc1ccc2c(N)c(C(=O)N[C@H]3COc4cc(N5C[C@H]6CC[C@@H]5CN6)ncc4C3)sc2n1` [Example 76, N-((R)-7-((1R,4R)-2,5-diazabicyclo[2.2.2]octan-2-yl)-3,4-dihydro-2H-pyrano[3,2-c]pyridin-3-yl)-3-amino-6-methylthieno[2,3-b]pyridine-2-carboxamide], 0.05 to 0.2 µM. For the molecule `CO[C@H]1CN(c2ccc3c(c2)OC[C@H](NC(=O)c2sc4nc(C)cnc4c2N)C3)C[C@@H]1N` [Example 117], the IC50 fell in the range of 0.2 to 2 µM. `CO[C@H]1CN(c2ccc3c(c2)OC[C@H](NC(=O)c2sc4nc(C)sc4c2N)C3)CC1N` (stereo partly drawn) [Example 118, 6-amino-N-[(3R)-7-[(3,4S)-3-amino-4-methoxypyrrolidin-1-yl]-3,4-dihydro-2H-1-benzopyran-3-yl]-2-methylthieno[2,3-d][1,3]thiazole-5-carboxamide]: the IC50 was in the range of 0.2 to 2 µM. With `COC[C@@]1(C)CN(c2ccc3c(n2)CC[C@H](NC(=O)c2sc4nc(C)ccc4c2N)C3)C[C@H]1N` [Example 343, 3-amino-N-[(6S)-2-[(3S,4S)-4-amino-3-(methoxymethyl)-3-methylpyrrolidin-1-yl]-5,6,7,8-tetrahydroquinolin-6-yl]-6-methylthieno[2,3-b]pyridine-2-carboxamide], the IC50 lay within 0.2 to 2 µM. As for `Cc1ccc2c(N)c(C(=O)N[C@H]3CCc4nc(N5C[C@H](N)[C@@]6(CCOC6)C5)ccc4C3)sc2n1` [Example 437, 3-amino-N-[(6S)-2-[(5R,9R)-9-amino-2-oxa-7-azaspiro[4.4]nonan-7-yl]-5,6,7,8-tetrahydroquinolin-6-yl]-6-methylthieno[2,3-b]pyridine-2-carboxamide], the IC50 is > 2 µM.

For the molecule `Cc1ccc2c(N)c(C(=O)N[C@H]3CCc4nc(N5C[C@@H](N)[C@]6(CCOC6)C5)ccc4C3)sc2n1` [Example 438, 3-amino-N-[(6S)-2-[(5S, 9S)-9-amino-2-oxa-7-azaspiro[4.4]nonan-7-yl]-5,6,7,8-tetrahydroquinolin-6-yl]-6-methylthieno[2,3-b]pyridine-2-carboxamide], the IC50 is > 2 µM. Consider `CN[C@H]1CN(c2ccc3c(n2)CC[C@H](NC(=O)c2sc4nc(C)ccc4c2N)C3)C[C@H]1CF` [Example 441, 3-amino-N-[(6S)-2-[(3R,4R)-3-(fluoromethyl)-4-(methylamino)pyrrolidin-1-yl]-5,6,7,8-tetrahydroquinolin-6-yl]-6-methylthieno[2,3-b]pyridine-2-carboxamide], for which the IC50 was > 2 µM. On the same count and under the same terms, the figure for `CN[C@@H]1CN(c2ccc3c(n2)CC[C@H](NC(=O)c2sc4nc(C)ccc4c2N)C3)C[C@@H]1CF` [Example 442, 3-amino-N-[(6S)-2-[(3S,4S)-3-(fluoromethyl)-4-(methylamino)pyrrolidin-1-yl]-5,6,7,8-tetrahydroquinolin-6-yl]-6-methylthieno[2,3-b]pyridine-2-carboxamide] is > 2 µM; for `Cc1ccc2c(N)c(C(=O)N[C@@H]3CCc4nc(N5C[C@@H](CF)[C@@H](N)C5)ncc4C3)sc2n1` [Example 445, 3-amino-N-[(6R)-2-[(3R,4R)-3-amino-4-(fluoromethyl)pyrrolidin-1-yl]-5,6,7,8-tetrahydroquinazolin-6-yl]-6-methylthieno[2,3-b]pyridine-2-carboxamide] it is > 2 µM; for `Cc1ccc2c(N)c(C(=O)N[C@@H]3CCc4nc(N5C[C@H](CF)[C@H](N)C5)ncc4C3)sc2n1` [Example 446, 3-amino-N-[(6R)-2-[(3S,4S)-3-amino-4-(fluoromethyl)pyrrolidin-1-yl]-5,6,7,8-tetrahydroquinazolin-6-yl]-6-methylthieno[2,3-b]pyridine-2-carboxamide] it is > 2 µM.

Staying with this test, now noted: biochemical IC50 range, Ubiquitin-Rhodamine 110 assay, Example A-3; read-out: USP25 A-3.
As to `Cc1ccc2c(N)c(C(=O)N[C@H]3CCc4c(F)c(N5CC6CCC(C5)N6)cc(F)c4C3)sc2n1` (single isomer, unassigned) [Example 603], the IC50 lay in the range of 0.001 to 0.05 µM. On to `COC1CN(c2ccc3c(c2)CC[C@H](NC(=O)c2sc4nc(C)cnc4c2N)C3)CC1N` (stereo in doubt) [Example 130, 7-amino-N-[(2S)-6-[(3S,4S)-3-amino-4-methoxypyrrolidin-1-yl]-1,2,3,4-tetrahydronaphthalen-2-yl]-3-methylthieno[2,3-b]pyrazine-6-carboxamide], for which the IC50 was in the range of 0.2 to 2 µM. On the same count and under the same terms, the figure for `CO[C@H]1CN(c2ccc3c(c2)CC[C@H](NC(=O)c2sc4nc(C)ccc4c2N)C3)C[C@H]1N` [Example 144, 3-amino-N-[(2S)-6-[(3R,4S)-3-amino-4-methoxypyrrolidin-1-yl]-1,2,3,4-tetrahydronaphthalen-2-yl]-6-methylthieno[2,3-b]pyridine-2-carboxamide] is 0.2 to 2 µM; for `CO[C@@H]1CN(c2ccc3c(c2)OC[C@H](NC(=O)c2sc4nc(C)cnc4c2N)C3)C[C@@H]1N` [Example 147, 7-amino-N-[(3R)-7-[(3S,4R)-3-amino-4-methoxypyrrolidin-1-yl]-3,4-dihydro-2H-1-benzopyran-3-yl]-3-methylthieno[2,3-b]pyrazine-6-carboxamide] it is 0.2 to 2 µM. Same read-out and setting: in the case of `Cc1ccc2c(N)c(C(=O)N[C@H]3COc4cc(N5C[C@H](N)[C@]6(CCOC6)C5)ccc4C3)sc2n1` [Example 656, 3-amino-N-[(3R)-7-[(5S,9R)-9-amino-2-oxa-7-azaspiro[4.4]nonan-7-yl]-3,4-dihydro-2H-1-benzopyran-3-yl]-6-methylthieno[2,3-b]pyridine-2-carboxamide] it was 0.2 to 2 µM. As to `Cc1ccc2c(N)c(C(=O)N[C@H]3CCc4cc(N5C[C@H](CF)[C@H](N)C5)ccc4C3)sc2n1` [Example 657, 3-amino-N-[(2S)-6-[(3S,4S)-3-amino-4-(fluoromethyl)pyrrolidin-1-yl]-1,2,3,4-tetrahydronaphthalen-2-yl]-6-methylthieno[2,3-b]pyridine-2-carboxamide], the IC50 lay in the range of 0.2 to 2 µM. Same read-out and setting: in the case of `Cc1ccc2c(N)c(C(=O)N[C@H]3COc4cc(N5C[C@H](N)[C@](C)(CF)C5)ccc4C3)sc2n1` [Example 658, 3-amino-N-[(3R)-7-[(3R,4R)-4-amino-3-(fluoromethyl)-3-methylpyrrolidin-1-yl]-3,4-dihydro-2H-1-benzopyran-3-yl]-6-methylthieno[2,3-b]pyridine-2-carboxamide] it was 0.05 to 0.2 µM; in that of `Cc1ccc2c(N)c(C(=O)N[C@H]3COc4cc(N5C[C@H](N)[C@@](C)(CF)C5)ccc4C3)sc2n1` [Example 659, 3-amino-N-[(3R)-7-[(3S,4R)-4-amino-3-(fluoromethyl)-3-methylpyrrolidin-1-yl]-3,4-dihydro-2H-1-benzopyran-3-yl]-6-methylthieno[2,3-b]pyridine-2-carboxamide], 0.05 to 0.2 µM.

The record behind these values is patent publication US12162888B2, “Carboxamides as ubiquitin-specific protease inhibitors” (Valo Early Discovery, Inc., priority 2018, dated 2024).
